Measured values as given in PubChem BioAssay (NCI).
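Cultured in 96-well plates, cells were exposed to test compound for 48 hours across five concentrations. At the TGI there is no net growth.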

How the values were obtained:
Assay in all cases: growth of human tumour cells (NCI), 48 h
786-0 renal = system: 786-0 renal
A498 renal = system: A498 renal
A549 NSCLC = system: A549 NSCLC
ACHN renal = system: ACHN renal
CAKI-1 renal = system: CAKI-1 renal
CCRF-CEM leukemia = system: CCRF-CEM leukemia
COLO 205 colon = system: COLO 205 colon
DLD-1 colon = system: DLD-1 colon
DMS 114 small cell lung = system: DMS 114 small cell lung
EKVX NSCLC = system: EKVX NSCLC
HCC-2998 colon = system: HCC-2998 colon
HCT-116 colon = system: HCT-116 colon
HCT-15 colon = system: HCT-15 colon
HL-60(TB) leukemia = system: HL-60(TB) leukemia
HOP-18 NSCLC = system: HOP-18 NSCLC
HOP-62 NSCLC = system: HOP-62 NSCLC
HOP-92 NSCLC = system: HOP-92 NSCLC
HT29 colon = system: HT29 colon
IGROV1 ovarian = system: IGROV1 ovarian
K-562 leukemia = system: K-562 leukemia
KM12 colon = system: KM12 colon
KM20L2 colon = system: KM20L2 colon
LOX IMVI melanoma = system: LOX IMVI melanoma
LXFL 529 NSCLC = system: LXFL 529 NSCLC
M14 melanoma = system: M14 melanoma
M19-MEL melanoma = system: M19-MEL melanoma
MALME-3M melanoma = system: MALME-3M melanoma
MOLT-4 leukemia = system: MOLT-4 leukemia
NCI-H226 lung = system: NCI-H226 lung
NCI-H23 lung = system: NCI-H23 lung
NCI-H460 lung = system: NCI-H460 lung
NCI-H522 lung = system: NCI-H522 lung
OVCAR-3 ovarian = system: OVCAR-3 ovarian
OVCAR-4 ovarian = system: OVCAR-4 ovarian
OVCAR-5 ovarian = system: OVCAR-5 ovarian
OVCAR-8 ovarian = system: OVCAR-8 ovarian
RPMI-8226 leukemia = system: RPMI-8226 leukemia
RXF 393 renal = system: RXF 393 renal
RXF-631 renal = system: RXF-631 renal
SF-268 CNS = system: SF-268 CNS
SF-295 CNS = system: SF-295 CNS
SF-539 CNS = system: SF-539 CNS
SK-MEL-2 melanoma = system: SK-MEL-2 melanoma
SK-MEL-28 melanoma = system: SK-MEL-28 melanoma
SK-MEL-5 melanoma = system: SK-MEL-5 melanoma
SK-OV-3 ovarian = system: SK-OV-3 ovarian
SN12C renal = system: SN12C renal
SNB-19 CNS = system: SNB-19 CNS
SNB-75 CNS = system: SNB-75 CNS
SNB-78 CNS = system: SNB-78 CNS
SR leukemia = system: SR leukemia
TK-10 renal = system: TK-10 renal
U251 CNS = system: U251 CNS
UACC-257 melanoma = system: UACC-257 melanoma
UACC-62 melanoma = system: UACC-62 melanoma
UO-31 renal = system: UO-31 renal
XF 498 CNS = system: XF 498 CNS
DMS 273 small cell lung = system: DMS 273 small cell lung
SW-620 colon = system: SW-620 colon

Work on `CC(C)=CC1CC(=O)C1(C)Sc1ccccc1` (configuration not stated) yielded a TGI (786-0 renal) greater than 100 µM, a TGI (A498 renal) greater than 100 µM and a TGI (A549 NSCLC) greater than 100 µM. For the same compound, the TGI (ACHN renal) was greater than 100 µM, the TGI (CAKI-1 renal) was greater than 100 µM and the TGI (CCRF-CEM leukemia) was 45 µM. It also gave a TGI (COLO 205 colon) of 65.1 µM, a TGI (DLD-1 colon) greater than 100 µM and a TGI (DMS 114 small cell lung) of 32.6 µM. The TGI (EKVX NSCLC) was greater than 100 µM, the TGI (HCC-2998 colon) was greater than 100 µM and the TGI (HCT-116 colon) was greater than 100 µM. For the same compound, the TGI (HCT-15 colon) was 34.8 µM, the TGI (HL-60(TB) leukemia) was 46.7 µM and the TGI (HOP-18 NSCLC) was greater than 100 µM. For the same compound, the TGI (HOP-62 NSCLC) was greater than 100 µM, the TGI (HOP-92 NSCLC) was 87 µM and the TGI (HT29 colon) was 66.6 µM. It also gave a TGI (IGROV1 ovarian) greater than 100 µM, a TGI (K-562 leukemia) of 59.4 µM and a TGI (KM12 colon) greater than 100 µM. For the same compound, the TGI (KM20L2 colon) was greater than 100 µM, the TGI (LOX IMVI melanoma) was 36.1 µM and the TGI (LXFL 529 NSCLC) was greater than 100 µM. For the same compound, the TGI (M14 melanoma) was greater than 100 µM, the TGI (M19-MEL melanoma) was 72.1 µM and the TGI (MALME-3M melanoma) was greater than 100 µM. It also gave a TGI (MOLT-4 leukemia) of 92.1 µM, a TGI (NCI-H226 lung) greater than 100 µM and a TGI (NCI-H23 lung) greater than 100 µM. The TGI (NCI-H460 lung) was 54.4 µM, the TGI (NCI-H522 lung) was 69.1 µM and the TGI (OVCAR-3 ovarian) was greater than 100 µM. It also gave a TGI (OVCAR-4 ovarian) greater than 100 µM, a TGI (OVCAR-5 ovarian) greater than 100 µM and a TGI (OVCAR-8 ovarian) greater than 100 µM. For the same compound, the TGI (RPMI-8226 leukemia) was 45.9 µM, the TGI (RXF 393 renal) was 72 µM and the TGI (RXF-631 renal) was greater than 100 µM. It also gave a TGI (SF-268 CNS) greater than 100 µM, a TGI (SF-295 CNS) greater than 100 µM and a TGI (SF-539 CNS) greater than 100 µM. It also gave a TGI (SK-MEL-2 melanoma) greater than 100 µM, a TGI (SK-MEL-28 melanoma) greater than 100 µM and a TGI (SK-MEL-5 melanoma) greater than 100 µM. It also gave a TGI (SK-OV-3 ovarian) greater than 100 µM, a TGI (SN12C renal) greater than 100 µM and a TGI (SNB-19 CNS) greater than 100 µM. For the same compound, the TGI (SNB-75 CNS) was greater than 100 µM, the TGI (SNB-78 CNS) was greater than 100 µM and the TGI (SR leukemia) was 41.4 µM. It also gave a TGI (TK-10 renal) greater than 100 µM, a TGI (U251 CNS) greater than 100 µM and a TGI (UACC-257 melanoma) greater than 100 µM. It also gave a TGI (UACC-62 melanoma) greater than 100 µM, a TGI (UO-31 renal) greater than 100 µM and a TGI (XF 498 CNS) of 95.7 µM.
`Cc1ccc(S(=O)(=O)n2cc(/C=C/C#N)c(/C=C/C#N)c2)cc1` was tested, and the TGI (786-0 renal) was greater than 100 µM, the TGI (A498 renal) was greater than 100 µM and the TGI (A549 NSCLC) was greater than 100 µM. The TGI (ACHN renal) was greater than 100 µM, the TGI (CCRF-CEM leukemia) was greater than 100 µM and the TGI (COLO 205 colon) was greater than 100 µM. It also gave a TGI (DMS 114 small cell lung) greater than 100 µM, a TGI (DMS 273 small cell lung) greater than 100 µM and a TGI (EKVX NSCLC) greater than 100 µM. It also gave a TGI (HCT-15 colon) greater than 100 µM, a TGI (HL-60(TB) leukemia) greater than 100 µM and a TGI (HOP-18 NSCLC) greater than 100 µM. The TGI (HOP-62 NSCLC) was greater than 100 µM, the TGI (HOP-92 NSCLC) was 86.7 µM and the TGI (HT29 colon) was greater than 100 µM. The TGI (IGROV1 ovarian) was greater than 100 µM, the TGI (K-562 leukemia) was greater than 100 µM and the TGI (KM12 colon) was greater than 100 µM. For the same compound, the TGI (KM20L2 colon) was greater than 100 µM, the TGI (LOX IMVI melanoma) was greater than 100 µM and the TGI (LXFL 529 NSCLC) was greater than 100 µM. The TGI (M14 melanoma) was greater than 100 µM, the TGI (M19-MEL melanoma) was greater than 100 µM and the TGI (MALME-3M melanoma) was greater than 100 µM. For the same compound, the TGI (MOLT-4 leukemia) was greater than 100 µM, the TGI (NCI-H23 lung) was greater than 100 µM and the TGI (NCI-H460 lung) was greater than 100 µM. It also gave a TGI (OVCAR-3 ovarian) greater than 100 µM, a TGI (OVCAR-4 ovarian) greater than 100 µM and a TGI (OVCAR-5 ovarian) greater than 100 µM. It also gave a TGI (OVCAR-8 ovarian) greater than 100 µM, a TGI (RPMI-8226 leukemia) greater than 100 µM and a TGI (RXF 393 renal) greater than 100 µM. For the same compound, the TGI (RXF-631 renal) was greater than 100 µM, the TGI (SF-268 CNS) was greater than 100 µM and the TGI (SF-295 CNS) was greater than 100 µM. For the same compound, the TGI (SF-539 CNS) was greater than 100 µM, the TGI (SK-MEL-2 melanoma) was greater than 100 µM and the TGI (SK-MEL-28 melanoma) was greater than 100 µM. The TGI (SK-MEL-5 melanoma) was greater than 100 µM, the TGI (SK-OV-3 ovarian) was greater than 100 µM and the TGI (SN12C renal) was greater than 100 µM. The TGI (SNB-19 CNS) was greater than 100 µM, the TGI (SNB-75 CNS) was greater than 100 µM and the TGI (SW-620 colon) was greater than 100 µM. The TGI (TK-10 renal) was greater than 100 µM, the TGI (U251 CNS) was greater than 100 µM and the TGI (UACC-257 melanoma) was greater than 100 µM. For the same compound, the TGI (UACC-62 melanoma) was greater than 100 µM, the TGI (UO-31 renal) was greater than 100 µM and the TGI (XF 498 CNS) was greater than 100 µM.
In the case of `CN1CCC(SC2Cc3cc(Cl)ccc3Sc3ccccc32)CC1` (configuration not stated), the TGI (786-0 renal) is reported as 27.7 µM, the TGI (A498 renal) is reported as 31.6 µM and the TGI (A549 NSCLC) is reported as 29.7 µM. The TGI (ACHN renal) was 28.6 µM, the TGI (CAKI-1 renal) was 23.7 µM and the TGI (COLO 205 colon) was 27.2 µM. The TGI (DLD-1 colon) was 28.2 µM, the TGI (DMS 273 small cell lung) was 26.2 µM and the TGI (EKVX NSCLC) was 34 µM. The TGI (HCC-2998 colon) was 21.3 µM, the TGI (HCT-116 colon) was 22.5 µM and the TGI (HCT-15 colon) was 31.1 µM. For the same compound, the TGI (HL-60(TB) leukemia) was 19.5 µM, the TGI (HOP-18 NSCLC) was 26.7 µM and the TGI (HOP-92 NSCLC) was 26.9 µM. For the same compound, the TGI (HT29 colon) was 15.3 µM, the TGI (IGROV1 ovarian) was 29.6 µM and the TGI (K-562 leukemia) was 21.9 µM. The TGI (KM12 colon) was 23.2 µM, the TGI (KM20L2 colon) was 17.8 µM and the TGI (LOX IMVI melanoma) was 25.7 µM. It also gave a TGI (LXFL 529 NSCLC) of 26.3 µM, a TGI (M14 melanoma) of 15.7 µM and a TGI (M19-MEL melanoma) of 25.3 µM. The TGI (MALME-3M melanoma) was 28.8 µM, the TGI (MOLT-4 leukemia) was 20.3 µM and the TGI (NCI-H226 lung) was 30 µM. It also gave a TGI (NCI-H23 lung) of 27.9 µM, a TGI (NCI-H460 lung) of 31.4 µM and a TGI (NCI-H522 lung) of 28.4 µM. The TGI (OVCAR-3 ovarian) was 28.2 µM, the TGI (OVCAR-4 ovarian) was 29 µM and the TGI (OVCAR-5 ovarian) was 30.3 µM. The TGI (OVCAR-8 ovarian) was 31.5 µM, the TGI (RPMI-8226 leukemia) was 23.3 µM and the TGI (RXF 393 renal) was 17.1 µM. The TGI (RXF-631 renal) was 27.9 µM, the TGI (SF-268 CNS) was 25.5 µM and the TGI (SF-295 CNS) was 30.7 µM. The TGI (SF-539 CNS) was 33.8 µM, the TGI (SK-MEL-28 melanoma) was 4.78 µM and the TGI (SK-MEL-5 melanoma) was 26.8 µM. It also gave a TGI (SK-OV-3 ovarian) of 30.4 µM, a TGI (SN12C renal) of 28.5 µM and a TGI (SNB-19 CNS) of 29 µM. For the same compound, the TGI (SNB-75 CNS) was 22.2 µM, the TGI (SR leukemia) was 23.1 µM and the TGI (SW-620 colon) was 30.9 µM. For the same compound, the TGI (TK-10 renal) was 26.5 µM, the TGI (U251 CNS) was 27.9 µM and the TGI (UACC-257 melanoma) was 21.3 µM. For the same compound, the TGI (UACC-62 melanoma) was 11.4 µM, the TGI (UO-31 renal) was 16.7 µM and the TGI (XF 498 CNS) was 30 µM.
